Results as given in article PMC10610545, “Preclinical Evaluation of an Imidazole-Linked Heterocycle for Alzheimer’s Disease” (Pharmaceutics, 2023).

How the values were obtained:
[1] = Metabolic stability in human liver microsomes; assay type: in vitro ADME
Description: The objective of this study was to evaluate the metabolic stability of LSL33 and its depletion rate in the presence of HLM. This was achieved by incubating LSL33 with microsomes and monitoring parent disappearance using LC/MSMS (Table S6).
Metabolic stability of LSL33 in human liver microsomes
The reaction was initiated by adding HLM (1 mg/mL) to an equal volume of buffer solution containing the test compound and cofactors at the proper concentrations. Reactions without NADPH were also incubated to rule out non-NADPH metabolism or chemical instability in the […]
incubation course. All reactions were terminated using 60 µL of ice-cold acetonitrile at 0, 5, 15, […]
30, 45, and 60 min. […] All experiments were conducted in triplicate. Samples were monitored to parent compound disappearance by LC-MS in MRM mode according to a quantitation method for each compound.
LSL33 was dissolved in DMSO at 0.5 mg/mL. Assay conditions, total incubation volume 400 µL, protein concentration 1 mg/mL, NADPH, 1.3 mM. Preparation of reagents: Test compound, the final concentration in the assay. […]
prepared by dissolving appropriate amount of N ADPH in 100 mM potassium phosphate buffer. […]
from Sigma-Aldrich, Germany. The equipment needed for the study was Beckman Coulter […]
injector, Api4000 Mass Spectrometer.
Bio-Analysis: Samples were monitored for parent compound disappearance by LC-MS in MRM mode according to a previously verified quantitation method for each compound.
Data Analysis: The peak area of analyte was used to calculate the percentage of remaining compound at each incubation time (Table S7). The natural logarithm of the percentage of reamining LSL33 was plotted versus incubation time to calculate the half -life using the following […]
time) see Table S8 and Figure S11 . Intrinsic clearance was determined by the following equation:
CLint H = Ln 2/t1/2 (min) x volume incubation (mL)/microsomal protein (mg) x 45 (MPPGL) 1500 g human liver/ 70 Kg human body weight. Units for CL int are usually expressed as mL/min/mg microsomal protein (table S8), MPPGL = referred to as mg microsomal protein per gram liver.
The categories classification
Table S6. Summary of LC-MS conditions
Ionization Mode Electrospray positive
Sample matrix Microsomes+ NADPH + buffer […]
Mobile phase [Water: Acetonitrile :0.1% Formic Acid]

[2] = system: 5XFAD mice; test: Object location test (OLT) in 5XFAD mice; assay type: in vivo, mouse; settings: 2 mg/Kg in drinking water, 4 weeks, vs 5XFAD Control
Description: (§1) Four-month-old female and male Wt and 5XFAD mice (n = 32) were used to carry out cognitive and molecular analyses. […] The animals had free access to food and water and were kept under standard temperature conditions (22 ± 2 °C) and 12 h/12 h light/dark cycles (300 lx/0 lx). […] After 4 weeks of treatment, cognitive tests, including short- and long-term memory and OLT, were performed to study the effects of treatment on learning and memory. Weight and water consumption were controlled each week, and the LSL33 concentration was adjusted accordingly to reach the optimal dose until euthanasia.
The OLT evaluated the spontaneous tendency of rodents to spend more time exploring a novel object location than a familiar object location and recognizing when an object has been relocated. OLT was performed using a white plywood apparatus (50 × 50 × 25 cm), in which three walls were white and one was black. On the first day, animals were just habituated to the empty open-field arena for 10 min. On the second day, two objects were placed in front of the black wall, equidistant from each other and the wall. The objects were 10 cm high and identical. […] Trials were recorded using a camera mounted above the open field area, and the total exploration time was determined by scoring TN and TO. DI was calculated, defined as (TN−TO)/(TN+TO). […]

[3] = Pharmacokinetics of LSL33 in CD1 mice (plasma and brain)
Description: The pharmacokinetic study was carried on in male CD1 mice (Envigo Laboratories) with a body
weight between 40 to 50 g (n = 3-4 per group). Animals were randomized to be included in the
treated or control groups. A single intraperitoneal dose of LSL33 (2 mg/kg, 10 ml/kg) was
administered early in the morning (between 8 and 11 a.m.) without anaesthesia. Compound was
monitored for signs of pain or distress during the time between injection and euthanasia. Mice
were sacrificed by cervical dislocation and blood (0.6 mL) was collected at different time points
in tubes with serum gel and clotting activator (Sarstedt Micro tube 1.1 mL Z-Gel). Samples were
centrifugated at 10.000 rpm for 10 min to obtain plasma and stored at -80 °C up to analysis of
compound concentration by UPLC-MS/MS.

[4] = system: PSD95; test: Western blot of hippocampal PSD95 in 5XFAD mice; assay type: in vivo, mouse; settings: 5XFAD hippocampus, 2 mg/Kg, vs 5XFAD Control
Description: as §1
Three days after cognitive tests, mice were euthanized for protein extraction and RNA and DNA isolation. After euthanasia, the brains were immediately removed from the skulls, and the hippocampi were dissected, frozen, and maintained at −80 °C.
For western blotting (WB), aliquots of 20 μg of hippocampal protein were used. […]
The membranes were washed and incubated with secondary antibodies for 1 h at room temperature. […] Protein loading was routinely monitored by immunodetection of glyceraldehyde-3-phosphate dehydrogenase (GAPDH).
Figure 7 Results from an in vivo study of synaptic plasticity markers. (A) Representative protein levels and quantification by WB for PSD95. (B,C) Representative gene expression for Ngf and Bdnf Gene expression levels were determined by real-time PCR. […]

[5] = male, CD1, mouse, brain, po, 2 mg/kg
[6] = male, CD1, mouse, plasma, oral, 2 mg/kg

SMILES: Cl.c1ccc2sc(-c3ncc[nH]3)cc2c1 [LSL33, 2-(Benzo[b]thiophene-2-yl)-1H-imidazole hydrochloride]
- hepatic clearance category ([1]; HLM intrinsic clearance bands): high
- % Compound Remaining ([1]; HLM, minus NADPH, 0 min): 100.0 ± 10.2%
- % Compound Remaining ([1]; HLM, minus NADPH, 60 min): 96.6 ± 9.0%
- % Compound Remaining ([1]; HLM, plus NADPH, 0 min): 100.0±9.0%
- % Compound Remaining ([1]; HLM, plus NADPH, 5 min): 4.6 ± 0.4%
- % Compound Remaining ([1]; HLM, plus NADPH, 15 min): 0.1 ± 0.1%
- % Compound Remaining ([1]; HLM, plus NADPH, 30 min): 0.2 ± 0.1%
- % Compound Remaining ([1]; HLM, plus NADPH, 45 min): 1.3 ± 0.2%
- % Compound Remaining ([1]; HLM, plus NADPH, 60 min): 0.2 ± 0.3%
- half-life ([1]; human, human liver microsomes, HLM): 1.58 min
- OLT discrimination index (DI) [2]: increase in the discrimination index (DI)
- concentration at 15 min [3, 5]: 15.2 ng/g
- concentration at 30 min [3, 5]: 6.7 ng/g
- AUC(0-inf) [3, 6]: 3050 ng·h/mL
- AUC(0-t) [3, 6]: 2950 ng·h/mL
- Cmax [3, 6]: 950 ± 620 ng/mL
- Tmax [3, 6]: 15 min
- half-life ([3]; male, CD1, mouse, plasma, oral, 2 mg/kg, t1/2β (terminal elimination half-life), CD1 mice, single 2 mg/kg dose): 313 min
- AUC0-1440/AUC0-∞ ratio ([3]; plasma, 2 mg/kg): 0.97
- t1/2β (terminal elimination half-life) ([3]; plasma, CD1 mice, single 2 mg/kg dose, 2 mg/kg): 312.81 ± 34.90 min
- maximum mean concentration in plasma as share of the drug administered ([3]; single oral dose): ≤ 1%
- PSD95 protein levels [4]: increase in PSD95
